Test results published in paper PMC11171921, “NinaB and BCO Collaboratively Participate in the β-Carotene Catabolism in Crustaceans: A Case Study on Chinese Mitten Crab Eriocheir sinensis” (International Journal of Molecular Sciences, 2024).

Target: T1, EsNinaBl (Eriocheir sinensis, UniProt Z9UJ24V2T0)
T1 construct: full ORF in pGEX-4T (GST fusion vector), expressed in beta-carotene-producing E. coli BL(DE3) with pAC-BETAipi; primer-encoded N-terminus MSTDEGG, C-terminus FIPAEAQ
T1 sequence (Z9UJ24V2T0 1-523): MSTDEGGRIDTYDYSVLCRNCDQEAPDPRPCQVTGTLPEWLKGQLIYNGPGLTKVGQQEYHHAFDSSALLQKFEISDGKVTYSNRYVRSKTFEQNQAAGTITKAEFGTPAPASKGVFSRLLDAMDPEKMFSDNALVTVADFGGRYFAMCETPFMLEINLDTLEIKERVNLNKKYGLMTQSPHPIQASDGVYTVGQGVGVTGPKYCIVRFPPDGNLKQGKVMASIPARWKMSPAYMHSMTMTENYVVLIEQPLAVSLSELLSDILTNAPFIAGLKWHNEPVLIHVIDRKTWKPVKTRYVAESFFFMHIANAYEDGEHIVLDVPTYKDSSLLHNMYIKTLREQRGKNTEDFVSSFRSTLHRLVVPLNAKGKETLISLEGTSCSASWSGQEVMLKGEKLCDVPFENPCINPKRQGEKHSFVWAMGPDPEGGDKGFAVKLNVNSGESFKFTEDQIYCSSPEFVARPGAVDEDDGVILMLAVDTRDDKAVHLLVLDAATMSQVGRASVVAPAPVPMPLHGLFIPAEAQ
Assay: beta-carotene degradation and decolorization in beta-carotene-accumulating E. coli
Type: cell-based
Conditions: co-expression with pAC-BETAipi; […] IPTG induction; GST-fusion vector; products not identified

## CC1=C(/C=C/C(C)=C/C=C/C(C)=C/C=C/C=C(C)/C=C/C=C(C)/C=C/C2=C(C)CCCC2(C)C)C(C)(C)CCC1 [β-carotene]
  beta-carotene degradation and decolorization in beta-carotene-accumulating E. co: evident decolorization was observed in the β-carotene-accumulated bacteria expressing EsNinaBl
